Data set [1] concerns the target T1, mouse HDAC6 (Mus musculus, UniProt Q9Z2V5).
T1 construct: HA; made in house; host or cells: 293T cells (transient transfection, anti-HA immunoprecipitation, HA peptide elution)
T1 sequence (Q9Z2V5 1-1149): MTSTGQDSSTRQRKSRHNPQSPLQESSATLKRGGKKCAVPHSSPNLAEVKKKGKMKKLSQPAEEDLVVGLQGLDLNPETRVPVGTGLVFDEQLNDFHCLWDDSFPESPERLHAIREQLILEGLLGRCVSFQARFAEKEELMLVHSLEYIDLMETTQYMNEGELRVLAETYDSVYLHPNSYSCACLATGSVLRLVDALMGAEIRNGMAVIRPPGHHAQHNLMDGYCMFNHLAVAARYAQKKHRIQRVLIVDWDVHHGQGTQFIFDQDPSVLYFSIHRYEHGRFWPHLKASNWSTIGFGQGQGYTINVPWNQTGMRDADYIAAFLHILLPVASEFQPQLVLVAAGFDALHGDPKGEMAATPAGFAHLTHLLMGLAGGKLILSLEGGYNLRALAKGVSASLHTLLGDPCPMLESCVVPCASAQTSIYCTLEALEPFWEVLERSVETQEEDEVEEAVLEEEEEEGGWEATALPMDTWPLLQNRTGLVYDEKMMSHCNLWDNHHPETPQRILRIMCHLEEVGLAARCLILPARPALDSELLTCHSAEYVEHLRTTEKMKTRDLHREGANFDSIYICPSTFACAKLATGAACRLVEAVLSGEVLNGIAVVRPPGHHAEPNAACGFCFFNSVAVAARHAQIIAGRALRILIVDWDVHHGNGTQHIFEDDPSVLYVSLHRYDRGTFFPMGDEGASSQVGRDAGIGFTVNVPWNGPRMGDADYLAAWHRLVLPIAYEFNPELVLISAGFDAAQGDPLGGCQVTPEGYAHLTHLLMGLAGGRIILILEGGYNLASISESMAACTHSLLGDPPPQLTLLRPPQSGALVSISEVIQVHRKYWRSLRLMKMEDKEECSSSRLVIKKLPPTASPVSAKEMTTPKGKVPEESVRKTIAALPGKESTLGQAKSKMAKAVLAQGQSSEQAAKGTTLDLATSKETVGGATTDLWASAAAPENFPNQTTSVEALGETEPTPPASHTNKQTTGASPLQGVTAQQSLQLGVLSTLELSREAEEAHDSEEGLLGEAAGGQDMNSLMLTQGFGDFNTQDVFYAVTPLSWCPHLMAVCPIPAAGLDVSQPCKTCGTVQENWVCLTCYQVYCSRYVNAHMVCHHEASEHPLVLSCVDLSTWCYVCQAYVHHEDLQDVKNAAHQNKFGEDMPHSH
Nature of the data set: In vitro HDAC inhibition activity, [3H]-acetylated histone substrate, HDAC6. Format: biochemical. As to the method: (§1) To measure HDAC inhibition activity, an HDAC solution was prepared as described below. 1×10^7 of 293T cells were plated on to a 100-mm dish and, after 24 hours, transfected with vectors (1 μg) expressing human HDAC1 and HDAC4 or mouse HDAC6, using LipofectAmine 2000 reagent (Life Technologies, Inc. Gaithersburg, Md.). […] The vectors were introduced for five hours in OPTI-MEM. The medium was then replaced with Dulbecco's modified Eagle's medium (DMEM), and incubated for 19 hours. The cells were washed with PBS, suspended in lysis buffer (50 mM Tris-HCl (pH7.5), 120 mM NaCl, 5 mM EDTA, and 0.5% Nonidet P-40), and sonicated. The supernatant was collected by centrifugation and nonspecific protein was removed using Protein A/G plus agarose beads (Santa Cruz Biotechnologies, Inc.). Anti-FLAG M2 antibodies (Sigma-Aldrich, Inc.) were added to the supernatant of cells expressing HDAC1 or HDAC4. Anti-HA antibodies (clone 3F10, Roche Molecular Biochemicals) were added to the supernatant of cells expressing HDAC6. Reaction in the respective mixtures was carried out at 4° C. for one hour. The resulting reaction mixtures were independently mixed with agarose beads and further reacted at 4° C. for one hour. The agarose beads were washed three times with lysis buffer and then washed once with HD buffer (20 mM Tris-HCl (pH8.0), 150 mM NaCl, 10% glycerol, and a complete protease inhibitor cocktail (Boehringer Mannheim, Germany)). […] The HDAC reaction solution was used for determining HDAC inhibition activity as shown below.
(§2) In vitro HDAC inhibition activity was evaluated as follows: A test compound was dissolved in DMSO and adjusted to 10 mM. This was used as an inhibitor stock solution. […] These reactions were stopped by adding 10 μl HCl. The [^3H] acetic acid excised by the enzyme reaction was extracted with ethyl acetate and subjected to radioactive dose measurement. As a negative control, the same procedure was carried out in which no inhibitor was added to the reaction system. The inhibition activity was expressed as a 50% inhibition concentration (“IC50 (nM)”) of the HDAC activity in the negative control (Tables 1 to 4).

Data set [2] has as its system human wild-type p21 promoter. Nature of the data set: p21 promoter-inducing activity (luciferase) in MFLL-9 cells. Format: cell-based. The procedure: The HDAC inhibition activity in vivo was measured using p21 promoter-inducing activity as an index, as shown below. The MFLL-9 cells employed for the experiments stably maintained fusion genes of human wild-type p21 promoter and luciferase (Dr. B. Vogelstaein). Using phenol red-free DMEM medium comprising 10% FBS, cultivation was carried out in a steam-saturated incubator at 37° C. with 5% carbon dioxide. The MFLL-9 cells were plated at a density of 85,000 cells/well on a 96-well microtiter plate, each in 99 μl of the above-mentioned medium. These were then cultivated for six hours. One μl of test compound solution was added to each well, which was then cultured for another 18 hours.
The intensity of luminescence caused by the product of the enzyme reaction for intracellular luciferase expression was measured using Luc Lite (Packard BioScience Company). A group in which test compounds were not added was used as a negative control group. The values measured for this group were used as a standard. The activities for each concentration of added test compound were expressed relative to the above-mentioned standard value, 1.

Data set [3] concerns the target T2, human HDAC4 (Homo sapiens, UniProt P56524).
T2 construct: FLAG; made in house; host or cells: 293T cells (transient transfection, anti-FLAG immunoprecipitation, FLAG peptide elution)
Nature of the data set: In vitro HDAC inhibition activity, [3H]-acetylated histone substrate, HDAC4. Format: biochemical. The procedure:
as §1, §2

Data set [4] in a line: Cytotoxicity test (free-LDH ratio), TIG-3. The class given is cell-based. Particulars: human, TIG-3 human normal lung cells. As to the method:
(§3) This was then cultured for 18 hours.

Data set [5] is described as follows: in vitro. The note with it: human, Cancer-Cell-Selective Cytotoxicity. The procedure: (§4) Human normal lung cells (TIG-3) and human uterine cancer cells (HeLa) were used to test SCOP cytotoxicity. These TIG-3 and HeLa cells were cultured in a DMEM medium comprising 10% FBS at 37° C. in the presence of 5% carbon dioxide in a steam-saturated incubator. The TIG-3 and HeLa cells were plated in 100 μl/well of the above-described medium on a 96-well microtiter plate, at a density of 30,000 cells/well and 10,000 cells/well respectively. This was then cultured for 18 hours. Test compound solution diluted with medium was added to each well and culture was continued for another 48 hours.
(§5) 30 μl of supernatant from each well was transferred to another 96-well microtiter plate (A), and the remaining supernatant was discarded. 100 μl of 0.5% Triton-X/PBS was added to each well to lyse the cells, and 30 μl was then transferred to each respective well of another 96-well microtiter plate (B). 30 μl of LDH-Cytotoxic Test (Wako) substrate solution was added to each well of these 96-well microtiter plates A and B, causing a color reaction. Once the color reaction was sufficiently progressed, it was stopped by adding 60 μl of a quenching solution. Color intensity was measured at OD560 nm using a microplate reader (Softmax). [A/(A+B)] was calculated as the free-LDH ratio. […] The higher the activity value for cancer-cell-selective cell damage (LD50 for normal cells/LD50 for cancer cells), the more that cancer-cell-selective apoptosis was induced.

The test system of data set [6] is human uterine cancer cells (HeLa). Nature of the data set: in vitro. The procedure: as §4, §5
For data set [7], the target named is T3, human HDAC1 (Homo sapiens, UniProt Q13547).
T3 construct: FLAG; made in house; host or cells: 293T cells (transient transfection, anti-FLAG immunoprecipitation, FLAG peptide elution)
T3 sequence (Q13547 whole entry): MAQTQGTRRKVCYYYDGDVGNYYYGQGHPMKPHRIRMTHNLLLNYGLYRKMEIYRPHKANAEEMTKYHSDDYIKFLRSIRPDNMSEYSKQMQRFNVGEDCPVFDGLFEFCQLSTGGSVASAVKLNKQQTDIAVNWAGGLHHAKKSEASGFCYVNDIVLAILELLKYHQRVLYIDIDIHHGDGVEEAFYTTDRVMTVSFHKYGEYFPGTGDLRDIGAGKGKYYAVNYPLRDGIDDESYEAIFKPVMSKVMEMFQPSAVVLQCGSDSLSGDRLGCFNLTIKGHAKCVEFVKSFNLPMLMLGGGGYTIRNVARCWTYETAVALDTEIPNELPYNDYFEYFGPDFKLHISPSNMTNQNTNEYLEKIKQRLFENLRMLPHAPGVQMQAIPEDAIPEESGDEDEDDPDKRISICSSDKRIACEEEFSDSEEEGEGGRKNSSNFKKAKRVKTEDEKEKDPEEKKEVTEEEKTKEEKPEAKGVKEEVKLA
Nature of the data set: In vitro HDAC inhibition activity, [3H]-acetylated histone substrate, HDAC1. The class given is biochemical. As to the method: as §1, §2

Data set [8] is described as follows: Stability in serum (FCS), read out by p21 promoter inducing activity. Format: in vitro ADME. The procedure: The stability of SCOP 152, SCOP 304, and SCOP 402 in serum was evaluated by the method shown below: 1 μl of 10 mM SCOP 152, SCOP 304, and SCOP 402 was added to 99 μl FCS, and incubated at 37° C. Each hour, NaCl in a sufficient amount for saturation and 1 ml of ethyl acetate were added to each mixture. After extraction, from 800 μl of the ethyl acetate phase, the ethyl acetate was distilled off, and then 100 μl of DMSO was added to the residue. The resulting solution was further diluted ten times with DMSO and used to measure p21 promoter inducing activity. Activity at incubation time zero was taken as 100%, and activities were compared (FIG. 7).

Data set [9] concerns Human normal lung cells (TIG-3). Nature of the data set: Cytotoxicity test (free-LDH ratio), TIG-3. The class given is cell-based. The note with it: 48 hours; free-LDH ratio 50%; without DTT. The procedure:
as §3

Setting [10] is: Table 1, X = H (coexisting with DTT).

Where two headings read alike, the source gives them in different places. *1 amine or outer side, *2 acyl side, *3 side chain or, on linkers, in order; H or OH if unused. Where a SMILES comes first, the peptide text is derived from it. Bridges are numbered along the chain shown (N, C = ends). Roman numbers before positions name the chains, in order. [ ]: non-standard residue; d: D form. hNle(7-SH) = O=C([C@H](CCCCCS[*:3])N[*:1])[*:2]; Gly((CH2)5SH) = N[C@@H](CCCCCS)C(=O)O A value given as a limit tells only on which side of the number the result lay.

In general, IC50 refers to the point on the concentration scale where inhibition reaches its midpoint. High values mean weaker potency in that assay, low ones greater potency in that assay. As usually defined, the EC50 is the concentration that produces a half-maximal response. Higher therefore signals weaker potency.

T2 sequence (O15379 whole entry partner): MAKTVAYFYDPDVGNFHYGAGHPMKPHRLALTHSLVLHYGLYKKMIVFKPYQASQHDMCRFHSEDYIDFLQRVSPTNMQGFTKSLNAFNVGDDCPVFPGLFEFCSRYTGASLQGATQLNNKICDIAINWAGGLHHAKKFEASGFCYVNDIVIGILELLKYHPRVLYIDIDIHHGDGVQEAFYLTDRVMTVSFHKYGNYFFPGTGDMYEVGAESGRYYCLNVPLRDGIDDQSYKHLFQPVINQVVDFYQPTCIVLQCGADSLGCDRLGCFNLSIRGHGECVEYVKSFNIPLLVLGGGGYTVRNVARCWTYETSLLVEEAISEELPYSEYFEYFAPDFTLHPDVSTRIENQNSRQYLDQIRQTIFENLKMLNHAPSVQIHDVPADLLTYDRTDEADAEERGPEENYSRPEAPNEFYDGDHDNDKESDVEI
T2 sequence (P56524 whole entry): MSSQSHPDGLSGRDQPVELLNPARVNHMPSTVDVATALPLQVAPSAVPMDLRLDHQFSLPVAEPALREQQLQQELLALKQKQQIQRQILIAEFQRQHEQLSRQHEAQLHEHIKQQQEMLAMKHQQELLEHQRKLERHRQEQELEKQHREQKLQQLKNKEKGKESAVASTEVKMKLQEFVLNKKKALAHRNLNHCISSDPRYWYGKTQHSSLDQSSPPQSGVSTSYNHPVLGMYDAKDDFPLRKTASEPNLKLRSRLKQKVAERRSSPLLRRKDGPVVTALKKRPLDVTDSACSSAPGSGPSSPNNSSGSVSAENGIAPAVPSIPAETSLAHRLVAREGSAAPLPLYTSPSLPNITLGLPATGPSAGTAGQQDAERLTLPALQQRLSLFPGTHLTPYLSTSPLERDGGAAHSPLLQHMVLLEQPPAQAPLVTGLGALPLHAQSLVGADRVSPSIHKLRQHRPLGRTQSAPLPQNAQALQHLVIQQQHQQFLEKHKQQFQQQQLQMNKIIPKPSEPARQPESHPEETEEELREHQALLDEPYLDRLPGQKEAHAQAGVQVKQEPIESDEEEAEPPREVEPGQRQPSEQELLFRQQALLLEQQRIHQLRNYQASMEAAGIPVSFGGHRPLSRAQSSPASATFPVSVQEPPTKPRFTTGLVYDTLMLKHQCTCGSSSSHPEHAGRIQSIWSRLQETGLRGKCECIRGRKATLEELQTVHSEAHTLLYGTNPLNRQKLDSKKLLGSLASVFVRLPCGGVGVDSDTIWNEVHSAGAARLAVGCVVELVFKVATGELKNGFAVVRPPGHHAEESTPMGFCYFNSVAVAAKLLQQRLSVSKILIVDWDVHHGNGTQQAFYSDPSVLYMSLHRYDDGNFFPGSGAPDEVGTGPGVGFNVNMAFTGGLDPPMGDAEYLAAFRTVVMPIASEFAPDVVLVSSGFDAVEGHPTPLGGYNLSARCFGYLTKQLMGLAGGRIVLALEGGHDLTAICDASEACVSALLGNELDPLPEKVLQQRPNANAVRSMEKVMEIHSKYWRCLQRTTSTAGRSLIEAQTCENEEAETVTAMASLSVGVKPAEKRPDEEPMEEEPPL

In the case of `CC[C@H](C)[C@@H]1NC(=O)[C@@H](Cc2ccc(OC)cc2)NC(=O)[C@H](CCCCCS)NC(=O)[C@H]2CCCN2C1=O` [SCOP 152] (cyclo([Gly((CH2)5SH)][dY](Me)I[dP])), the results for the IC50 in data set [1] (setting [10]), in [3] (setting [10]) and in data set [7] (setting [10]) were 1400 nM, 2.06 nM and 4.6 nM, respectively. The EC50 in [2] (Table 1, X = H (coexisting with DTT), 50% of maximum active value for TSA) was 309 nM; in data set [2] (Table 5, purified SCOP 152 under DTT-free conditions), 3510 nM. Also, the CC50 at 48 h in data set [4] (LD50 (nM) TIG-3) came out at 6780 nM. Further, the selectivity ratio at 48 h in [5] was 18.3. Also, in [6] (48 h), the “LD50 (nM) HeLa” value came out at 370 nM.

With `CC[C@H](C)[C@@H]1NC(=O)[C@@H](Cc2ccc(OC)cc2)NC(=O)[C@H](CCCCCSSCCCCC[C@@H]2NC(=O)[C@H]3CCCN3C(=O)[C@H]([C@@H](C)CC)NC(=O)[C@@H](Cc3ccc(OC)cc3)NC2=O)NC(=O)[C@H]2CCCN2C1=O` [SCOP 304, cyclo(-L-Am7(-)-D-Tyr(Me)-L-Ile-D-Pro-)] (I: cyclo([hNle(7-SH)][dY](Me)I[dP]) / II: cyclo([hNle(7-SH)][dY](Me)I[dP]); disulfide I:1-II:1), the IC50 was greater than 500000 nM in data set [1] (Table 2, homodimer); 145 nM in data set [3] (Table 2, homodimer); 142 nM in data set [7] (Table 2, homodimer). In addition, in data set [8], the “Retention of activity in serum” value is on record as “stably retain activity in serum for longer than SCOP 152”. In data set [2] (Table 2, homodimer), this compound came in with an EC50 of 341 nM. The selectivity ratio at 48 h in data set [5] was found to be 25.2. The “Cancer-Cell-Selective Cytotoxicity” value in [6] (human, 48 h) is given as 23.0.

Turning to `CC[C@H](C)[C@@H]1NC(=O)[C@@H](Cc2ccc(OC)cc2)NC(=O)[C@H](CCCCCSSC)NC(=O)[C@H]2CCCN2C1=O` [SCOP 405, cyclo(-L-Am7(SMe)-D-Tyr(Me)-L-Ile-D-Pro-)], the IC50 in data set [1] (Table 3, hybrid, without DTT) was determined as 191 nM; in data set [3] (Table 3, hybrid, without DTT), 405 nM; in [7] (Table 3, hybrid, without DTT), 119 nM. Moreover, the EC50 in data set [2] (Table 3, hybrid, without DTT) turned out to be 3260 nM. Besides, the CC50 at 48 h in data set [4] (48 hours, free-LDH ratio 50%, without DTT, read-out: LD50 (nM) TIG-3) came out at 7900 nM. For the same compound, the selectivity ratio at 48 h in data set [5] (LD50 for normal cells/LD50 for cancer cells (TIG-3/HeLa), without DTT) came out at 44.1. The “LD50 (nM) HeLa” value in data set [6] (48 h) turned out to be 179 nM.

As to `CC(/C=C/C(=O)NO)=C\[C@@H](C)C(=O)c1ccc(N(C)C)cc1` [TSA, Tricostatin A, reference compound], it took 445 nM to reach a half-maximal effect in data set [2] (Table 4, positive control) (EC50). For the same compound, the “LD50 (nM) TIG-3” value in [9] stood at 1580 nM. Besides, the “LD50 (nM) HeLa” value in data set [6] (48 hours, free-LDH ratio 50%, without DTT) was determined as 41.4 nM.

These data come from patent US7488712B2, “Histone deacetylase inhibitors and methods for producing the same” (Kyushu Institute of Technology, priority 2002, dated 2009).
